Data as given in the OligoGym collection.
Values joined by “and” are separate entries in the source; they are usually repeats but may differ in a detail not shown here. Equal entries are not always repeated. After the bases stand the sugars from the 5' end (letter, count) and the backbone: PS all phosphorothioate, else s phosphorothioate and o phosphodiester by linkage. Methylation of C is not given here. k = constrained ethyl (cEt); d = 2'-deoxy (DNA)

Target: MALAT1
Settings: ASO, A431, 0.005 µM

CGTGTTGTTTTCTCAG (sugars k3 d10 k3, PS)
target mRNA inhibition: 23%

ACTAAGCGAATGGCTT (sugars k3 d10 k3, PS)
target mRNA inhibition: -9%

GCTCATCACTTTATGA (sugars k3 d10 k3, PS)
target mRNA inhibition: 10%

CGGTTGAGAAGTGGCA (sugars k3 d10 k3, PS)
target mRNA inhibition: -11%

GCCTCTTCATTGTATT (sugars k3 d10 k3, PS)
target mRNA inhibition: 10%

GCATTTCCCATAATTG (sugars k3 d10 k3, PS)
target mRNA inhibition: 46%

CATAAACAATGCACTA (sugars k3 d10 k3, PS)
target mRNA inhibition: 14%

CTAACCCAGTTTGTCA (sugars k3 d10 k3, PS)
target mRNA inhibition: 35%

TTATAATAGAGCTACT (sugars k3 d10 k3, PS)
target mRNA inhibition: 4%

AAATCATTGGGAGTTA (sugars k3 d10 k3, PS)
target mRNA inhibition: 24%

CAAAACGAATTCAGGG (sugars k3 d10 k3, PS)
target mRNA inhibition: 26%

GCTTACACACAACTGA (sugars k3 d10 k3, PS)
target mRNA inhibition: 50%

CTCTAAGATTGTAAGC (sugars k3 d10 k3, PS)
target mRNA inhibition: 16%

TTTACTTTCCATTACG (sugars k3 d10 k3, PS)
target mRNA inhibition: 16%

CAAGAACTAGCACCTG (sugars k3 d10 k3, PS)
target mRNA inhibition: 7%

TGGTCTAGGATCCTCT (sugars k3 d10 k3, PS)
target mRNA inhibition: -15%

ACACCTTGAGTCATTT (sugars k3 d10 k3, PS)
target mRNA inhibition: 50%

AGTCTCGGGCTGCAGG (sugars k3 d10 k3, PS)
target mRNA inhibition: 3%

GTCCTAGCTTCATCAA (sugars k3 d10 k3, PS)
target mRNA inhibition: 18%

GGCCATCATACTGCCA (sugars k3 d10 k3, PS)
target mRNA inhibition: -19%

TAGACGGAGAACAACT (sugars k3 d10 k3, PS)
target mRNA inhibition: 29%

CAGTTATATTAGGTTC (sugars k3 d10 k3, PS)
target mRNA inhibition: 8%

GCTCACATGCCAGTTA (sugars k3 d10 k3, PS)
target mRNA inhibition: 32%

CTTGACAAGCAATTAA (sugars k3 d10 k3, PS)
target mRNA inhibition: 30%

TTTTAGTCACTGGATA (sugars k3 d10 k3, PS)
target mRNA inhibition: 45%

TTTACTTGCCAACAGA (sugars k3 d10 k3, PS)
target mRNA inhibition: 27%

AGACTAAAGGCTTCAG (sugars k3 d10 k3, PS)
target mRNA inhibition: 12%

GAGGCAAACGAAACAT (sugars k3 d10 k3, PS)
target mRNA inhibition: 1%

AAATCCCCTAGGGAAG (sugars k3 d10 k3, PS)
target mRNA inhibition: -8%

GCCTCCTCAATCCACT (sugars k3 d10 k3, PS)
target mRNA inhibition: 16%

CCTAGCTTCATCAAAC (sugars k3 d10 k3, PS)
target mRNA inhibition: -2%

AATTACACCAGTCCTT (sugars k3 d10 k3, PS)
target mRNA inhibition: 42%

ATGTACTCAGCTTCAA (sugars k3 d10 k3, PS)
target mRNA inhibition: 44%

GACATTCAAGCTGAAC (sugars k3 d10 k3, PS)
target mRNA inhibition: 53%

TAGTAGCTTTTTGATG (sugars k3 d10 k3, PS)
target mRNA inhibition: 31%

TGTTAAGACCATCCCA (sugars k3 d10 k3, PS)
target mRNA inhibition: 9%

TGAAGTCAAGACAACT (sugars k3 d10 k3, PS)
target mRNA inhibition: 1%

TAGTTGGCATCAAGGC (sugars k3 d10 k3, PS)
target mRNA inhibition: 72% and 69%

GGTACTTCAAGCATTC (sugars k3 d10 k3, PS)
target mRNA inhibition: 44%

TTACACTGCTCTGGGT (sugars k3 d10 k3, PS)
target mRNA inhibition: 2%

GTAAAACATTGCCTAC (sugars k3 d10 k3, PS)
target mRNA inhibition: 24%

CAAGGATGTATATAGT (sugars k3 d10 k3, PS)
target mRNA inhibition: 0%

AGGCTATTACCTGAAA (sugars k3 d10 k3, PS)
target mRNA inhibition: -5%

TTCTGATAACGAAGAG (sugars k3 d10 k3, PS)
target mRNA inhibition: 8%

GTACACTCCTTCTCTA (sugars k3 d10 k3, PS)
target mRNA inhibition: 17%

TTTAAACGGGTCATCA (sugars k3 d10 k3, PS)
target mRNA inhibition: 10%

TGTAAGAATTAAGACC (sugars k3 d10 k3, PS)
target mRNA inhibition: 18%

CACAATTCTTAATCAG (sugars k3 d10 k3, PS)
target mRNA inhibition: 41%

GAGAACAACTCGCATC (sugars k3 d10 k3, PS)
target mRNA inhibition: 20%

GAAGTGTACTATCCCA (sugars k3 d10 k3, PS)
target mRNA inhibition: 72% and 93%

TTACAGAAGTCTCGGG (sugars k3 d10 k3, PS)
target mRNA inhibition: 11%

CCTCAGTACGAAACTC (sugars k3 d10 k3, PS)
target mRNA inhibition: 16%

CACGGAAATTTTTCTA (sugars k3 d10 k3, PS)
target mRNA inhibition: 8%

GAAAGTGCTCACAAGG (sugars k3 d10 k3, PS)
target mRNA inhibition: 6%

ATGCTTATTCCCCAAT (sugars k3 d10 k3, PS)
target mRNA inhibition: 52%

GAACTATCACAATTCT (sugars k3 d10 k3, PS)
target mRNA inhibition: 3%

GACCAACTAAGCGAAT (sugars k3 d10 k3, PS)
target mRNA inhibition: 39%

CTCACATGCCAGTTAC (sugars k3 d10 k3, PS)
target mRNA inhibition: 51%

TCGCCTTCAAATTATT (sugars k3 d10 k3, PS)
target mRNA inhibition: 35%

GCCGCCTTTGTGAGGG (sugars k3 d10 k3, PS)
target mRNA inhibition: 25%
